Results as given in PMC7584160 (Environmental Health Perspectives, 2020).
Like-named read-outs stand apart in the source and are kept apart here.

Key:
[1] = target: T1, human thyroxine-binding globulin (TBG) (Homo sapiens, UniProt P05543); test: TBG fluorescence polarization competitive binding assay (F-T4 probe); settings: 100 nM TBG, 50 nM F-T4; up to 50 μM competitor
T1 construct: purchased Calbiochem 612075
T1 sequence (P05543 21-415): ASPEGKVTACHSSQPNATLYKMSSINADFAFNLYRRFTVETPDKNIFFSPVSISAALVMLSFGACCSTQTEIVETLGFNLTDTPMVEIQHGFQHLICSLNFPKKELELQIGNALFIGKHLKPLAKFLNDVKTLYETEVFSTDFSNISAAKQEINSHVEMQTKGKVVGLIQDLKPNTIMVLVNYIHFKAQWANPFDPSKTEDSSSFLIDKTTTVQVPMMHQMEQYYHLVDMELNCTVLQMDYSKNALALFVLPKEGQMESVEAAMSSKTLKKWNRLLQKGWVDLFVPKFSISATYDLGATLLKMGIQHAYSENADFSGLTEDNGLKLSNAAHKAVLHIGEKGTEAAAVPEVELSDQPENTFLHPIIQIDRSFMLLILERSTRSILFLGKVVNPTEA

human TRα-LBD = target: T2, human TRα-LBD (Homo sapiens, UniProt P10827); test: TRα-LBD fluorescence polarization competitive binding assay (F-T3 probe)
T2 sequence (P10827 163-410 isoform P10827-2 limits assumed): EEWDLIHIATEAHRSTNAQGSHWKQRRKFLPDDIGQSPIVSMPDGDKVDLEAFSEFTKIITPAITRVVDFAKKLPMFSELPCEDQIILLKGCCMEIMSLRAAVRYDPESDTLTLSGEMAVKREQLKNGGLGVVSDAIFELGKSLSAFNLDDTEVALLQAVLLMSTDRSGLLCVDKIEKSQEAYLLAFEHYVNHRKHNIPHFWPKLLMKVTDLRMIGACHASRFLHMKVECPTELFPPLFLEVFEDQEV

human TRβ-LBD = target: T3, human TRβ-LBD (Homo sapiens, UniProt P10828); test: TRβ-LBD fluorescence polarization competitive binding assay (F-T3 probe)
T3 construct: purchased Zhongding Biotechnology Co. Ltd
T3 sequence (P10828 217-461 limits assumed): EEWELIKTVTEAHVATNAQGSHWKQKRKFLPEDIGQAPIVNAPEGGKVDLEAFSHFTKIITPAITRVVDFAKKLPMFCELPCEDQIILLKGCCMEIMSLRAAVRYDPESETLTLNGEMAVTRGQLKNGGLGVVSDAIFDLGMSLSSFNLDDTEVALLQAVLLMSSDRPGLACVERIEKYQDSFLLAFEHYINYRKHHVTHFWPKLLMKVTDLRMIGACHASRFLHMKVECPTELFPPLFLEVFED

GH3 cells [2] = test: GH3 cell proliferation assay (individual exposure, with or without amiodarone); type: cell-based, rat; settings: 96 h; for LOEC for GH3 cell proliferation: individual exposure
GH3 cells [3] = test: GH3 cell proliferation assay in the presence of 10 nM T3; type: cell-based, rat
[4] = target: T4, human transthyretin (TTR) (Homo sapiens, UniProt P02766); test: TTR fluorescence polarization competitive binding assay (F-T4 probe); settings: for TTR RBP (relative binding potency): IC50 of TBBPA divided by that of competitor, TBBPA set as 1.00
T4 construct: purchased Calbiochem 529577

[5] = IC20 of TBBPA divided by that of competitor, TBBPA set as 1.00
[6] = […] nM TRα-LBD, 50 nM F-T3, pH 7.5, 25°C, linear interpolation, read-out: TRα-LBD IC20
[7] = […] nM TRβ-LBD, 50 nM F-T3, pH 7.5, 25°C, linear interpolation, read-out: TRβ-LBD IC20
[8] = […] nM TTR, 50 nM F-T4, pH 7.5, 25°C, linear interpolation, read-out: TTR IC50 (converted)
[9] = co-exposed with 10 nM T3, mass concentration

With CC(C)(c1cc(Br)c(O)c(Br)c1)c1cc(Br)c(O)c(Br)c1 [TBBPA, Tetrabromobisphenol A, reference compound] the “Binding to TBG” value [1] was “did not bind”, the “TRα-LBD RBP” value (human TRα-LBD; [5]) was 1.00 and the IC20 (human TRα-LBD; [6]) was 1500 nM. The “TRβ-LBD RBP” value (human TRβ-LBD; [5]) was 1.00, the IC20 (human TRβ-LBD; [7]) was 5000 nM and the “Highest activity of GH3 proliferation induction” value (GH3 cells [2]; individual exposure 0.3-10 μM, relative to 0.1% DMSO control) was 137%. The “LOEC for GH3 cell proliferation” value (GH3 cells [2]) was 2.5 µM, the “LOEC for enhancing T3-induced GH3 cell proliferation” value (GH3 cells [3]; co-exposed with 10 nM T3) was 2.5 µM and the “Enhancement of T3-induced GH3 cell proliferation effect” value (GH3 cells [3]; co-exposed with 10 nM T3, 96 h) was 20%.
For C=CCOc1c(Br)cc(C(C)(C)c2cc(Br)c(OCC=C)c(Br)c2)cc1Br [TBBPA-BAE, TBBPA-bis(allyl ether)], the “Inhibition of T3-induced GH3 cell proliferation effect” value (GH3 cells [3]; co-exposed with 10 nM T3) was about 60%.
C=CCOc1c(Br)cc(C(C)(C)c2cc(Br)c(O)c(Br)c2)cc1Br [TBBPA-MAE, TBBPA-mono(allyl ether)] was tested, and the “TTR RBP (relative binding potency)” value [4] was 2.00, the IC50 [4, 8] was 100 nM and the “TTR-binding potency, fold higher than T4” value ([4]; compared with T4) was 2 fold. The “TTR-binding potency, fold greater than TBBPA” value ([4]; compared with TBBPA) was 2 fold, the IC50 ([4]; mass concentration given beside the μM value, read-out: TTR IC50 (converted)) was 97.6 nM and the “TRα-LBD RBP” value (human TRα-LBD; [5]) was 0.25. For the same compound, the IC20 (human TRα-LBD; [6]) was 6000 nM, the IC20 (human TRα-LBD; mass concentration given beside the μM value, read-out: TRα-LBD IC20) was 3.4 µg/mL and the “TRβ-LBD RBP” value (human TRβ-LBD; [5]) was 1.25. The IC20 (human TRβ-LBD; [7]) was 4000 nM and the IC20 (human TRβ-LBD; mass concentration given beside the μM value, read-out: TRβ-LBD IC20) was 2.3 µg/mL.
CC(C)(c1cc(Br)c(O)c(Br)c1)c1cc(Br)c(OCC(Br)CBr)c(Br)c1 (centres unmarked) [TBBPA-MDBPE, TBBPA-mono(2,3-dibromopropyl ether)] was tested, and the “TTR RBP (relative binding potency)” value [4] was 0.20, the IC50 ([4]; TTR IC50, […] nM TTR, 50 nM F-T4, pH 7.5, 25°C, linear interpolation) was 1000 nM and the IC50 ([4]; TTR IC50, mass concentration given beside the μM value) was 990 nM. For the same compound, the “TTR-binding potency, fold lower than natural ligand T4” value ([4]; compared with T4) was about 5 fold, the “TRα-LBD RBP” value (human TRα-LBD; [5]) was 0.03 and the IC20 (human TRα-LBD; pH 7.5, read-out: TRα-LBD IC20) was 50000 nM. For the same compound, the IC20 (human TRα-LBD; read-out: TRα-LBD IC20) was 36.8 µg/mL, the “TRβ-LBD RBP” value (human TRβ-LBD; [5]) was 0.25 and the IC20 (human TRβ-LBD; pH 7.5, read-out: TRβ-LBD IC20) was 20000 nM. The IC20 (human TRβ-LBD; read-out: TRβ-LBD IC20) was 14.7 µg/mL, the “LOEC for GH3 cell proliferation” value (GH3 cells [2]) was 0.3 µM and the “LOEC for GH3 cell proliferation” value (GH3 cells [2]; mass concentration) was 220 µg/L. For the same compound, the “LOEC for enhancing T3-induced GH3 cell proliferation” value (GH3 cells [3]; co-exposed with 10 nM T3) was 0.3 µM and the “LOEC for enhancing T3-induced GH3 cell proliferation” value (GH3 cells [3]; [9]) was 220 µg/L.
With CC(C)(c1cc(Br)c(OCC(Br)CBr)c(Br)c1)c1cc(Br)c(OCC(Br)CBr)c(Br)c1 (centres unmarked) [TBBPA-BDBPE, TBBPA-bis(2,3-dibromopropyl ether)] the “Effect on T3-induced GH3 cell proliferation” value (GH3 cells [3]; co-exposed with 10 nM T3) was “no effect”.
In the case of CC(C)(c1cc(Br)c(O)c(Br)c1)c1cc(Br)c(OCC2CO2)c(Br)c1 (centres unmarked) [TBBPA-MGE, TBBPA-mono(glycidyl ether)], the “TTR RBP (relative binding potency)” value [4] is reported as 0.40, the IC50 [4, 8] is reported as 500 nM and the “TTR-binding potency, fold lower than natural ligand T4” value ([4]; compared with T4) is reported as “approximately 2 fold”. For the same compound, the “TRα-LBD RBP” value (human TRα-LBD) was 0.18, the IC20 (human TRα-LBD; [6]) was 8000 nM and the “TRβ-LBD RBP” value (human TRβ-LBD) was 0.83. For the same compound, the IC20 (human TRβ-LBD; [7]) was 6000 nM, the “LOEC for GH3 cell proliferation” value (GH3 cells [2]) was 2.5 µM and the “LOEC for GH3 cell proliferation” value (GH3 cells [2]; mass concentration) was 1400 µg/L. For the same compound, the “LOEC for enhancing T3-induced GH3 cell proliferation” value (GH3 cells [3]; co-exposed with 10 nM T3) was 1.2 µM and the “LOEC for enhancing T3-induced GH3 cell proliferation” value (GH3 cells [3]; [9]) was 700 µg/L.
CC(C)(c1cc(Br)c(OCC2CO2)c(Br)c1)c1cc(Br)c(OCC2CO2)c(Br)c1 (centres unmarked) [TBBPA-BGE, TBBPA-bis(glycidyl ether)] was tested, and the “TRβ-LBD RBP” value (human TRβ-LBD; [5]) was 0.20, the IC20 (human TRβ-LBD; [7]) was 25000 nM and the “Inhibition of T3-induced GH3 cell proliferation effect” value (GH3 cells [3]; co-exposed with 10 nM T3) was “approximately 80%”.
